“And” between values parts separate entries of the source, which are not always exact repeats. Equal values may be shown once. Read-outs that look alike come from different tables or passages of the source.
Experiments:
[1] = tested on: B16-F10; assay: Cell growth inhibition, resazurin, 48 h; assay type: cell-based, mouse; settings: B16-F10, 48 h drug exposure
Protocol: (§1) RPMI 8226 (CCL-155), HT-29 (HTB-38), and B16-F10 (CRL-6475) cells were purchased from ATCC. RPMI 8226 cells were maintained in RPMI 1640 media supplemented with 10% (v/v) FBS, 2 mM L-glutamine, 1 mM sodium pyruvate and Penicillin/Streptomycin at 100 IU/ml and 100 μg/ml, respectively. HT-29 cells were maintained in McCoys 5A supplemented with 10% (v/v) FBS, 2 mM L-glutamine, 1 mM sodium pyruvate, 1% (v/v) non-essential amino acids, 10 mM HEPES and Penicillin/Streptomycin at 100 IU/ml and 100 μg/ml, respectively. B16-F10 cells were maintained in DMEM supplemented with 10% (v/v) FBS, 2 mM L-glutamine, 10 mM HEPES and Penicillin/Streptomycin at 100 IU/ml and 100 μg/ml, respectively.
(§2) RPMI 8226 cells were seeded at 2×10^4 cells/well in 90 μl RPMI media containing 10% (v/v) FBS or 1% (v/v) FBS into 96 well black-walled, clear-bottom tissue culture plates. […] Formulae II-16, II-17 and Formula II-18 were serially diluted in media containing 1% or 10% FBS and added in triplicate to the test wells. […] The final concentration of Formula II-18 ranged from 2 μM to 630 pM.

[2] = tested on: NCI-H292; assay: Cell growth inhibition, resazurin, 48 h; assay type: cell-based, human; settings: NCI-H292, 48 h drug exposure
[3] = tested on: OVCAR-3; assay: Cell growth inhibition, resazurin, 48 h; assay type: cell-based, human; settings: OVCAR-3, 48 h drug exposure
[4] = tested on: PANC-1; assay: Cell growth inhibition, resazurin, 48 h; assay type: cell-based; settings: Homo sapiens; PANC-1, 48 h drug exposure
[5] = tested on: RPMI 8226; assay: Cell growth inhibition, resazurin, 48 h; settings: for EC50: Homo sapiens, RPMI-8226, 48 h, RPMI 8226, 48 h drug exposure; for % cytotoxicity: RPMI 8226
Protocol: as §1, §2

[6] = tested on: HL-60/MX2; assay: Cell growth inhibition, resazurin, 48 h; settings: for EC50: HL-60/MX2, 48 h drug exposure
Protocol: (§3) The DNA binding agent Mitoxantrone was included as a control, as HL-60/MX2 cells are reported to be resistant to this chemotherapeutic agent (Harker W. G. et al. 1989).
(§4) Concentrations ranging from 6.32 μM to 2 nM were tested for II-2 and II-4.

[7] = tested on: HL-60; assay: Cell growth inhibition, resazurin, 48 h; settings: for EC50: HL-60, 48 h drug exposure
Protocol: as §3, §4

[8] = target: Thrombin (Homo sapiens, UniProt P00734); assay: Specificity: inhibition of other proteolytic enzymes; assay type: biochemical
[9] = tested on: chymotrypsin-like proteasome activity in packed whole blood lysate; assay: Whole blood proteasome activity after dosing (PWBL assay); assay type: in vivo, male Swiss-Webster mice; settings: mice
Protocol: In brief, frozen whole blood samples were thawed on ice for one hour, and resuspended in 700 μL of ice cold 5 mM EDTA, pH 8.0 in order to lyse the cells by hypotonic shock. This represents approximately 2-3 times the volume of the packed whole blood cells. Lysis was allowed to proceed for one hour, and the cellular debris was removed by centrifugation at 14,000×g for 10 minutes. The supernatant (Packed Whole Blood Lysate, PWBL) was transferred to a fresh tube, and the pellet discarded. Protein concentration of the PWBL was determined by BCA assay (Pierce) using BSA as a standard.
Proteasome activity was determined by measuring the hydrolysis of a fluorogenic substrate specific for the chymotrypsin-like activity of proteasomes (suc-LLVY-AMC, Bachem Cat. I-1395). […] The rate of hydrolysis in this system is linear for at least one hour. The hydrolysis rate of each sample is then normalized to relative fluorescent units per milligram of protein (RFU/mg).
The vehicle control consisted of 2% DMSO in 10% solutol. […] Packed whole blood cells were collected by centrifugation, washed with PBS, and re-centrifuged. All samples were stored at −80° C. prior to the evaluation of the proteasome activity.
Male Swiss Webster mice (12/group weighing 20-25 g) were injected with LPS (2 mg/kg) by the i.p. route. […]

[10] = tested on: HL-60(TB); settings: Leukemia
[11] = target: T1, 20S proteasome chymotrypsin-like activity in PC-3 cells (Homo sapiens, UniProt P28074); assay: Chymotrypsin-like activity of 20S proteasomes in treated cells; assay type: cell-based; settings: PC-3, read-out: % inhibition of the chymotrypsin-like activity of 20S proteasomes in PC-3 cell lysates, 1 hr; for inhibition at 0.01 µM: 10 nM; for inhibition at 0.1 µM: 100 nM; for inhibition at 1 µM: 1,000 nM; for inhibition at 10 µM: 10,000 nM
T1 construct: PC-3 (ATCC, CRL-1435), the human prostate cancer cell line; host or cells: PC-3
T1 sequence (P28074 60-263): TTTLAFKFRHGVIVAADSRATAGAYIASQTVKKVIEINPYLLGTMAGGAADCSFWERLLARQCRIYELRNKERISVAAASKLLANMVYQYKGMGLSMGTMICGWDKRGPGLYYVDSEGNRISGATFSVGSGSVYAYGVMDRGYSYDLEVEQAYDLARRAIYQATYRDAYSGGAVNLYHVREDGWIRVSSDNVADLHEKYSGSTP
Protocol: PC-3 (ATCC, CRL-1435), the human prostate cancer cell line, was cultured in F12K medium supplemented with 2 mM L-glutamine, 100 units/ml penicillin, 100 μg/ml streptomycin and 10% heat inactivated fetal bovine serum at 37° C., 5% CO2 and 95% humidified air. […] DMSO was used as the vehicle control at a final concentration of 0.1%. Following 1 hr incubation of PC-3 cells with the compounds, the cells were washed 3× with ice-cold 1×Dulbecco's Phosphate-Buffered Saline (DPBS, Mediatech, Herndon, Va.). […] Cell debris was pelleted by centrifugation at 14,000 rpm for 10 min, 4° C. and supernatants (=cell lysates) were transferred to a new tube. Protein concentration was determined by the BCA protein assay kit (Pierce Biotechnology, Rockford, Ill.). […] The total amount of protein used for each assay was 20 μg. The final concentration of Suc-LLVY-AMC and DMSO was 20 μM and 0.2%, respectively. Results are presented as the percent inhibition of the 20S proteasome chymotrypsin-like activity relative to the DMSO control.

C[C@@]12OC(=O)[C@]1([C@@H](O)[C@@H]1C=CCCC1)NC(=O)[C@@H]2CCCl [Formula II-16, Salinosporamide A]
EC50 [1]: 47 ± 20 nM | EC50 ([1]; Mus musculus, B16-F10, 48 h): 33 nM | EC50 ([2]; Homo sapiens, NCI-H292, 48 h): 97 nM | EC50 [2]: 66 ± 29 nM | EC50 ([3]; Homo sapiens, OVCAR-3, 48 h): 69 nM | EC50 [3]: 49 ± 31 nM | EC50 [4]: 60 nM | EC50 [5]: 8.6 ± 1.9 nM | % cytotoxicity ([5]; listed as II-16): 94 ± 0% | % cytotoxicity ([5]; listed as Salinosporamide A): 94 ± 1% | % cytotoxicity ([6]; HL-60/MX2): 84% and 89% | EC50 [6]: 25 nM | EC50 ([6]; Homo sapiens, HL60/MX2, 48 h): 28 nM | % cytotoxicity ([7]; HL-60): 88% and 91% | EC50 [7]: 30 nM | EC50 ([7]; Homo sapiens, HL-60, 48 h): 27 nM | EC50 [8]: > 200000 nM | proteasomal activity in PWBL ([9]; i.v. or oral, blood 90 min after administration): profound decrease in proteasomal activity in PWBL | activity upon oral administration (PWBL proteasome) ([9]; oral): active upon oral administration | Log10 G150 [10]: <-8.00 Molar | Log10 TGI [10]: -4.32 Molar

CC[C@H]1C(=O)N[C@@]2([C@@H](O)[C@@H]3C=CCCC3)C(=O)O[C@@]12C [Formula II-17]
EC50 ([2]; Homo sapiens, read-out: EC50): > 20000 nM | EC50 ([3]; Homo sapiens, read-out: EC50): > 20000 nM | EC50 ([6]; Homo sapiens, HL60/MX2, 48 h): > 20000 nM | EC50 ([7]; Homo sapiens, HL-60, 48 h): > 20000 nM | inhibition at 0.01 µM [11]: 16% | inhibition at 0.1 µM [11]: 26% | inhibition at 1 µM [11]: 49% | inhibition at 10 µM [11]: 79%

C[C@H]1C(=O)N[C@@]2([C@@H](O)[C@@H]3C=CCCC3)C(=O)O[C@@]12C [Formula II-20]
EC50 [5]: 8510 ± 3260 nM | inhibition at 0.01 µM [11]: 38% | inhibition at 0.1 µM [11]: 57% | inhibition at 1 µM [11]: 71% | inhibition at 10 µM [11]: 90%
